The nature of data set [1]: Safety studies, C57BL6 mice, 14 days. The format is in vivo. As to the method:
Preclinical toxicology of a representative of the polymer conjugated thyrointegrin antagonist antiangiogenic agent of P-bi-TAT was pursued in 5-to-6 week-old C57BL6 mice, treated for 14 days with varying doses of P-bi-TAT. The treatment groups were control (vehicle), 1 mg/kg, 3 mg/kg, 10 mg/kg, 30 mg/kg, 100 mg/kg and 330 mg/kg P-bi-TAT, administered daily s.c. for 14 days. Each treatment group consisted of 5 male and 5 female animals, and animal weights were measured twice weekly. Mice terminated after 14 days and blood samples collected from the retro-orbital venous plexus. Blood samples centrifuged, and harvested plasma was stored at −80° C. until subjected to analyses described below.
Liver function was estimated by measurement in stored plasma of alanine transaminase (ALT) and aspartate transaminase (AST) activities (Colorimetric kit, Biovision, Inc., Milpitas, Calif.) the data for which is shown in FIG. 44. Cardiac troponin I (cTnI) levels in plasma were measured by an ELISA method (Life Diagnostics, West Chester, Pa.) as an index of myocardial damage (FIG. 44). It is a troponin found exclusively in the heart and not in other forms of muscle. Kidney function estimated by measurement of plasma creatinine concentration (Colorimetric kit, Biovision, Inc.) (FIG. 44). Satisfactory standard curves were constructed for each of the liver and kidney assays. […]

Data set [2] has as its system pancreatic cancer SUIT 2 xenografts. Description: Pancreatic cancer SUIT 2 xenografts, with or without radiation. The format is in vivo, mouse. Particulars: for Decrease in tumor size, combination with radiation / Decrease in cell viability, combination with radiation / Increase of necrosis, combination with radiation: vs. non-irradiated control; for Tumor weight reduction after 20 days / Increase in % cell necrosis in tissue sections / Percent reduction in tumor cell viability: no radiation. As to the method:
Female NCr mice (Taconic Farms, Hudson, N.Y.) for in vivo studies obtained at 5-6 weeks of age (20 gm body weight) and maintained under specific pathogen-free conditions, and food and water provided ad libitum. The animals allowed to acclimate for 5 days. Cultured human SUIT 2 cells were harvested and implanted subcutaneously (s.c.) in each flank of the mice. Inocula comprising 100 μL, 50% Matrigel °, and containing 2×10^6 tumor cells was prepared. Tumors were grown for 7 days, at which time the animals were randomized into control and P-bi-TAT groups (6 animals/group, 12-carcinoma grafts/group). Starting on day 0, drug was administered at 3 or 10 mg of P-bi-TAT/kg body weight, daily for 20 days (to experimental day 19). Control animals received vehicle (PBS) daily. Animals were sacrificed on experimental day 20. Tumors were harvested and the weight of the tumors were measured. Tumors were formalin-fixed, imbedded in paraffin and sliced.
Effectiveness of radiation therapy, alone and in conjunction with P-bi-TAT was also assessed. The Radiation treatment was one Gy administered to right flank xenografts on days 10 and 17. Geometry of flank exposure excluded radiation exposure to the left flank of study animals, so that the left flank served as a control in the radiation studies.

Data set [3] relates to Matrigel growth factors implant-mediated angiogenesis. Description: Mouse Matrigel-growth factors implant angiogenesis model (hemoglobin). The data set is classed as in vivo. Particulars: 10, 30, 100 μg/10 μl; day 14. As to the method:
The mouse Matrigel model was performed in accordance with institutional guidelines for animal safety and welfare. Female mice C56/BL aged 5-6 weeks and body weights of 20 g were purchased from Taconic Farms (Hudson, N.Y., USA). The animals were maintained under specific pathogen-free conditions and housed 4 animals per cage, under controlled conditions of temperature (20-24° C.) and humidity (60-70%) and a 12 h light/dark cycle. The in vivo study carried out in the animal facility of the Veterans Affairs (VA) Medical Center, Albany, N.Y., and the experimental protocol approved by the VAIACUC. Mice were acclimated for 5 d prior to the start of experiments. […]
Polymer Conjugated DAT, TAT or MAT derivatives were tested at three different doses (10, 30, 100 μg/10 μl). […] At day 14-post plug implant, all animals were sacrificed and hemoglobin contents were quantitated using spectrophotometry. […]
Matrigel plug hemoglobin (Hb) content was indexed as a measure of new vascularity formation. […] A volume of 50 μl of supernatant were mixed with 50 μl of Drabkin's reagent and allowed to sit at room temperature for 15-30 min, after which 100 μl was placed in a 96-well plate and absorbance was measured at 540 nm with a Microplate Manager ELISA reader. The Hb concentration was expressed as mg/ml based on comparison with a standard curve.

Data set [4] deals with U87MG glioblastoma xenografts. Description: U87MG-luc glioblastoma subcutaneous xenografts in the nude mouse. The format is in vivo. As to the method:
The xenograft model of glioblastoma is a standard model for study of GBM. In the current studies, athymic, immunodeficient NCr nude mice aged 5-6 weeks and weighing 18-20 g were used. Animals were provided with ad libitum access to water and food. Animals allowed to acclimatize to the facility for 5 days prior to study. Cultured U87MG-luc cells were harvested and implanted subcutaneously (s.c.) in each flank (5×10^6 cells in 100 uL volumes containing 50% Matrigel) Tumors were grown for 2 days (to an initial volume of 150-250 mm^3) before administration of the control, C-DAT 1320, C-TAT 1330, P-TAT 730, P-bi-DAT 1020, P-bi-TAT 1030. Immediately before initiation of treatment at 2 days after implantation, animals were divided into control and treatment groups containing similar distributions of tumor volumes (calipers measurement). Polymer conjugated P-DAT 720 and P-TAT 730 (3 mg or 10 mg/kg body weight) was administered daily s.c. to two groups of animals×21 days, and vehicle (PBS, pH 8.0/0.5% ethanol) was administered daily s.c. to one group of animals as control×21 days. There were 4 animals and 8 grafts/treatment group. The control group and one group of drug-treated animals humanely sacrificed at 21 days; the second group of drug-treated mice observed off therapy for an additional 22 days to detect any tumor re-growth. The second drug-treated group thus observed for a total of 43 days. Tumors harvested and weighed, then fixed, sliced and subjected to hematoxylin and eosin (H&E) staining. Microscopic slides accommodated the full diameter of the control tumors. […]
Histologic evaluation of paraffin-embedded tissue sections were stained (hematoxylin and eosin), and each section was coded. The area of the section measured with a stage micrometer, and the percentage of viable vs. necrotic tumor, manifested by loss of cell density, dissolution of the plasma membrane and loss of nuclear structure estimated visually. The number of mitoses and apoptotic cells per high power field was counted for 5 fields of viable tumor areas and averaged per tissue section. […]

In a further data set the test system is U87-luc cells. Description: GBM (U87-luc) xenografts, orthotopic and subcutaneous, 7 days treatment. Particulars: 1, 3 and 10 mg/kg, SC daily for 7 days. The format is in vivo, mouse. As to the method:
Glioblastoma cells: U87-luc cells implanted orthotopically at 0.2×10^6 cell in 20 ul, in Matrigel and subcutaneously xenografted at 2×10^6 cells/implant with Matrigel in athymic female mice. Animals treated with polymers conjugated thyrointegrin antagonists, including derivatives of P-DAT 720, P-TAT 730 and bifunctional derivatives thereof for 7 days after 1 day post-implant and IVIS imaging of the brain tumor and subcutaneous tumor xenograft. […] FIGS. 38-40 depict the measurable dose-dependent effects of p-bi-TAT 1030 on brain GBM tumor and subcutaneous GBM tumor including the effect on luminescent signals of GBM in the brain, average tumor weight and bioluminescent intensity.

Data set [5] has as its system orthotropic brain GBM tumor and subcutaneous GBM xenografts. The experiment in a line: Kinetics of Cy5 labeled conjugates in GBM tumors (IVIS imaging). The format is in vivo. As to the method:
Each group of animals was provided with orthotropic implants (GBM) and after tumor growth in the brain and subcutaneously implanted GBM Xenografts. Polymer conjugated MAT 210, TAT 230 or DAT 220 derivatives were injected subcutaneously with P-bi-TAT-Cy5 and other polymer conjugated TAT 230 or DAT 220 derivative-Cy5. IVIS imaging was performed immediately after injection and at 30 min, 1 h, 2 h, 3 h, 4 h to detect the fluorescence intensity at the orthotropic brain xenograft tumor site (brain) and subcutaneous xenografts tumors. […] The graphs depicted in FIGS. 34 and 35 describe the kinetics of the thyrointegrin antagonist derivatives' uptake into GBM tumors in the brain or subcutaneously implanted tumors. FIGS. 34-35 describe the effects of the polymer conjugated thyrointegrin antagonist derivatives containing MAT 210, DAT 220 and TAT 230 over time including bifunctional embodiments thereof.

Turning to “O,O′-Bis({4-[3,5-diiodo-4-(1-methylen-1,2,3-triazol-4-ylmethoxy)phenoxy]-3,5-diiodophenyl}acetic acid) polyethylene glycol [P-bi-TAT]”, the Body weights result in data set [1] (1-330 mg/kg daily s.c. for 14 days) is “unaffected”. Moreover, in data set [1] (male and female mice, 2 weeks, up to 100-fold the efficacious dose (3-10 mg/kg)), the “Liver, heart or kidney toxicity (ALT, AST, cTnI, creatinine in plasma)” value is reported as “no evidence of liver, heart or kidney toxicity”. Moreover, the figures for the “Decrease in tumor size, combination with radiation” value in data set [2] (3 mg P-bi-TAT/kg plus one Gy radiation) and in data set [2] (10 mg P-bi-TAT/kg plus one Gy radiation) were 71% and 77%, respectively. Besides, the “Tumor weight reduction after 20 days” value was found to be 55% in data set [2] (3 mg/kg daily) and 65% in data set [2] (10 mg/kg daily). For the same substance, the “Decrease in cell viability, combination with radiation” value is on record as 54% in data set [2] (3 mg/kg plus 1 Gy radiation) and 68% in data set [2] (10 mg/kg plus 1 Gy radiation). The “Increase of necrosis, combination with radiation” value in data set [2] (3 mg/kg plus 1 Gy radiation) is listed as 65%; in data set [2] (10 mg/kg plus 1 Gy radiation) it was 70%. For the same substance, the “Increase in % cell necrosis in tissue sections” value is recorded as “not significant” in data set [2] (3 mg/kg) and “more than a doubling” in data set [2] (10 mg/kg). For the same substance, the “Percent reduction in tumor cell viability” value in data set [2] (3 mg/kg) is reported as “insignificant”; in data set [2] (10 mg/kg), 43%. For the same substance, in data set [3], the “Anti-angiogenic effect (Matrigel plug hemoglobin levels)” value is recorded as “dose dependent response on angiogenesis”. Moreover, the “Reduction in tumor cell viability (histological score)” value in data set [4] (3 mg P-bi-TAT/kg s.c. daily for 21 days) is recorded as 62%; in data set [4] (10 mg P-bi-TAT/kg s.c. daily for 21 days), 72%. In addition, the “Reductions in cell viability achieved by day 21” value in data set [4] (3 mg/kg and 10 mg/kg dosages, histologic evaluation) was 60-70%. In the data set with U87-luc cells, the “Suppression of tumor and cell viability in brain and subcutaneous GBM tumor” value was “dose dependent suppression of the tumor”. In data set [5] (subcutaneous injection, IVIS up to 4 hours), the “Cy5 signal in the brain over time” value was “seen in the brain at 30 minutes and sustained for the 4 hours of monitoring”. Besides, in data set [5] (tumors removed after 4 hours), the “Cy5 signal in brain GBM tumor versus subcutaneous GBM tumor xenografts” value was “comparable”.

(Values after US10695436B2, “Non-cleavable polymer conjugated with alpha V beta 3 integrin thyroid antagonists” (NANOPHARMACEUTICALS, LLC, priority 2016, dated 2020).)
